According to US10227323B2, “Glucosylceramide synthase inhibitors for the treatment of diseases” (BIOMARIN PHARMACEUTICAL INC., priority 2013, dated 2019):

Molecular target: T1, GCS (Canis lupus familiaris, UniProt A0A8I3MXG6)
T1 sequence (A0A8I3MXG6 1-394): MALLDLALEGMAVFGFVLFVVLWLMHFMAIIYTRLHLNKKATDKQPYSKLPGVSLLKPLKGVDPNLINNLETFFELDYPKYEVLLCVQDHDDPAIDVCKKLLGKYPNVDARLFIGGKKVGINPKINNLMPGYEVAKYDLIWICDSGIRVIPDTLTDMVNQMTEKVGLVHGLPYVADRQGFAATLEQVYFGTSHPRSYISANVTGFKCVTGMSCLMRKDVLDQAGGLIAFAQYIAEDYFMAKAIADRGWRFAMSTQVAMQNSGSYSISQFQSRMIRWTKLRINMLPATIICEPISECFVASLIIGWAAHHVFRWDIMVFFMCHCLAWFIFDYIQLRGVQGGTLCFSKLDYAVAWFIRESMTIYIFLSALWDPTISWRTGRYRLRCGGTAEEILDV
Test: Assay 1: GCS Enzymatic Assay (MDCK cell lysate, C6-NBD-Ceramide, LC/MS)
Type: biochemical, canine
Details: Table 2; data without asterisk; read-out: IC50 (nM) generated from Assay 1
Procedure, shortened: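 LC/MS/MS measurement of glucosylceramide and NBD-ceramide after a 1 h, 37 °C reaction with 100 μM UDP-glucose and 10 μM C6-NBD-ceramide gave IC50s or percent inhibition.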

| Structure (SMILES) | IC50 [nM] |
| --- | --- |
| O=C(N[C@H](CN1CCCC1)[C@H](O)c1ccc(OC2CC2)c(Cl)c1)C(=O)c1ccc(-c2ccc3scnc3c2)cc1 [Example 296, 2-(4-(benzo[d]thiazol-5-yl)phenyl)-N-((1R,2R)-1-(3-chloro-4-cyclopropoxyphenyl)-1-hydroxy-3-(pyrrolidin-1-yl)propan-2-yl)-2-oxoacetamide] | < 50 |
| O=C(N[C@H](CN1CCCC1)[C@H](O)c1ccc(OC2CC2)c(Cl)c1)C(=O)c1ccc(-c2ccc3ncsc3c2)cc1 [Example 297, 2-(4-(benzo[d]thiazol-6-yl)phenyl)-N-((1R,2R)-1-(3-chloro-4-cyclopropoxyphenyl)-1-hydroxy-3-(pyrrolidin-1-yl)propan-2-yl)-2-oxoacetamide] | < 50 |
| Cc1cc(C(=O)C(=O)N[C@H](CN2CCCC2)[C@H](O)c2ccc(OC3CC3)c(Cl)c2)ccc1-c1ccc(F)cc1 [Example 298, N-((1R,2R)-1-(3-chloro-4-cyclopropoxyphenyl)-1-hydroxy-3-(pyrrolidin-1-yl)propan-2-yl)-2-(4′-fluoro-2-methyl-[1,1′-biphenyl]-4-yl)-2-oxoacetamide] | < 50 |
| N#Cc1ccc(-c2ccc(C(=O)C(=O)N[C@H](CN3CCCC3)[C@H](O)c3ccc(OC4CC4)c(Cl)c3)cc2)cc1 [Example 301, N-((1R,2R)-1-(3-chloro-4-cyclopropoxyphenyl)-1-hydroxy-3-(pyrrolidin-1-yl)propan-2-yl)-2-(4′-cyano-[1,1′-biphenyl]-4-yl)-2-oxoacetamide] | < 50 |
| [2H]C([2H])(C(=O)N[C@H](CN1CCCC1)[C@H](O)c1ccc(OC2CC2)c(Cl)c1)c1ccc(-c2ccc(F)cc2)cc1 [Example 303, N-[(1R,2R)-2-(3-chloro-4-cyclopropoxyphenyl)-2-hydroxy-1-(pyrrolidinylmethyl)ethyl]-2-[4-(4-fluorophenyl)phenyl]acetamide] | < 50 |
| O=C(N[C@H](CN1CCCC1)[C@H](O)c1cc(F)c2c(c1)OCCO2)C(=O)c1cc2ccc(Cl)cc2s1 [Example 308, 2-(6-chlorobenzo[b]thiophen-2-yl)-N-((1R,2R)-1-(8-fluoro-2,3-dihydrobenzo[b][1,4]dioxin-6-yl)-1-hydroxy-3-(pyrrolidin-1-yl)propan-2-yl)-2-oxoacetamide] | < 50 |
| CC(C)n1cc2cc(C(=O)C(=O)N[C@H](CN3CCCC3)[C@H](O)c3ccc(OC4CC4)c(Cl)c3)ccc2n1 [Example 311, N-((1R,2R)-1-(3-chloro-4-cyclopropoxyphenyl)-1-hydroxy-3-(pyrrolidin-1-yl)propan-2-yl)-2-(2-isopropyl-2H-indazol-5-yl)-2-oxoacetamide] | < 50 |
| O=C(N[C@H](CN1CCCC1)[C@H](O)c1ccc(OC2CCC2)c(Cl)c1)C(=O)c1ccc(-c2ccc(F)cc2)cc1 [Example 313, N-((1R,2R)-1-(3-chloro-4-cyclobutoxyphenyl)-1-hydroxy-3-(pyrrolidin-1-yl)propan-2-yl)-2-(4′-fluoro-[1,1′-biphenyl]-4-yl)-2-oxoacetamide] | < 50 |
| Cc1nn(C(C)C)c2ccc(-c3ccc(C(=O)C(=O)N[C@H](CN4CCCC4)[C@H](O)c4ccc(OC5CC5)c(Cl)c4)cc3)cc12 [Example 314, N-((1R,2R)-1-(3-chloro-4-cyclopropoxyphenyl)-1-hydroxy-3-(pyrrolidin-1-yl)propan-2-yl)-2-(4-(1-isopropyl-3-methyl-1H-indazol-5-yl)phenyl)-2-oxoacetamide] | < 50 |
| Cc1cc(F)ccc1-c1ccc(C(=O)C(=O)N[C@H](CN2CCCC2)[C@H](O)c2cc(F)c3c(c2)OCCO3)cc1 [Example 315, 2-(4′-fluoro-2′-methyl-[1,1′-biphenyl]-4-yl)-N-((1R,2R)-1-(8-fluoro-2,3-dihydrobenzo[b][1,4]dioxin-6-yl)-1-hydroxy-3-(pyrrolidin-1-yl)propan-2-yl)-2-oxoacetamide] | < 50 |
| Cc1nn(C)c2ccc(-c3ccc(C(=O)C(=O)N[C@H](CN4CCCC4)[C@H](O)c4ccc(OC5CC5)c(Cl)c4)cc3)cc12 [Example 318, N-((1R,2R)-1-(3-chloro-4-cyclopropoxyphenyl)-1-hydroxy-3-(pyrrolidin-1-yl)propan-2-yl)-2-(4-(1,3-dimethyl-1H-indazol-5-yl)phenyl)-2-oxoacetamide] | < 50 |
| O=C(N[C@H](CN1CCCC1)[C@H](O)c1ccc2c(c1)OC=CO2)C(=O)c1ccc(-c2ccc(F)cc2)cc1 [Example 319, N-((1R,2R)-1-(benzo[b][1,4]dioxin-6-yl)-1-hydroxy-3-(pyrrolidin-1-yl)propan-2-yl)-2-(4′-fluoro-[1,1′-biphenyl]-4-yl)-2-oxoacetamide] | < 50 |

Results, then the molecule that gave them:

| IC50 [nM] | Structure (SMILES) |
| --- | --- |
| < 50 | Cc1cc(C(=O)C(=O)N[C@H](CN2CCCC2)[C@H](O)c2cc(F)c3c(c2)OCCO3)ccc1-c1ccc(F)cc1 [Example 299, N-((1R,2R)-1-(8-fluoro-2,3-dihydrobenzo[b][1,4]dioxin-6-yl)-1-hydroxy-3-(pyrrolidin-1-yl)propan-2-yl)-2-(4′-fluoro-2-methyl-[1,1′-biphenyl]-4-yl)-2-oxoacetamide] |
| < 50 | O=C(N[C@H](CN1CCC1)[C@H](O)c1cc(Cl)c2c(c1)OCCO2)C(=O)c1ccc(-c2ccc(F)cc2)cc1 [Example 300, N-((1R,2R)-3-(azetidin-1-yl)-1-(8-chloro-2,3-dihydrobenzo[b][1,4]dioxin-6-yl)-1-hydroxypropan-2-yl)-2-(4′-fluoro-[1,1′-biphenyl]-4-yl)-2-oxoacetamide] |
| < 50 | O=C(N[C@H](CN1CCCC1)[C@H](O)c1ccc(OC2CC2)c(Cl)c1)C(=O)c1ccc2oc3ccc(Br)cc3c2c1 [Example 302, 2-(8-bromodibenzo[b,d]furan-2-yl)-N-((1R,2R)-1-(3-chloro-4-cyclopropoxyphenyl)-1-hydroxy-3-(pyrrolidin-1-yl)propan-2-yl)-2-oxoacetamide] |
| < 50 | O=C(N[C@H](CN1CCCC1)[C@H](O)c1ccc(OC2CC2)c(Cl)c1)C(=O)c1ccc2nn(Cc3ccc(F)cc3)cc2c1 [Example 304, N-((1R,2R)-1-(3-chloro-4-cyclopropoxyphenyl)-1-hydroxy-3-(pyrrolidin-1-yl)propan-2-yl)-2-(2-(4-fluorobenzyl)-2H-indazol-5-yl)-2-oxoacetamide] |
| < 50 | O=C(N[C@H](CN1CCCC1)[C@H](O)c1cc(F)c2c(c1)OCCO2)C(=O)c1ccc2nn(Cc3ccc(F)cc3)cc2c1 [Example 305, N-((1R,2R)-1-(8-fluoro-2,3-dihydrobenzo[b][1,4]dioxin-6-yl)-1-hydroxy-3-(pyrrolidin-1-yl)propan-2-yl)-2-(2-(4-fluorobenzyl)-2H-indazol-5-yl)-2-oxoacetamide] |
| < 50 | CC(C)n1ncc2ccc(C(=O)C(=O)N[C@H](CN3CCCC3)[C@H](O)c3ccc(OC4CC4)c(Cl)c3)cc21 [Example 306, N-((1R,2R)-1-(3-chloro-4-cyclopropoxyphenyl)-1-hydroxy-3-(pyrrolidin-1-yl)propan-2-yl)-2-(1-isopropyl-1H-indazol-6-yl)-2-oxoacetamide] |
| < 50 | CC(C)n1ncc2ccc(C(=O)C(=O)N[C@H](CN3CCCC3)[C@H](O)c3cc(F)c4c(c3)OCCO4)cc21 [Example 307, N-((1R,2R)-1-(8-fluoro-2,3-dihydrobenzo[b][1,4]dioxin-6-yl)-1-hydroxy-3-(pyrrolidin-1-yl)propan-2-yl)-2-(1-isopropyl-1H-indazol-6-yl)-2-oxoacetamide] |
| < 50 | O=C(N[C@H](CN1CCCC1)[C@H](O)c1ccc(OC2CCCC2)c(Cl)c1)C(=O)c1ccc(-c2ccc(F)cc2)cc1 [Example 309, N-((1R,2R)-1-(3-chloro-4-(cyclopentyloxy)phenyl)-1-hydroxy-3-(pyrrolidin-1-yl)propan-2-yl)-2-(4′-fluoro-[1,1′-biphenyl]-4-yl)-2-oxoacetamide] |
| < 50 | Cc1c2cc(-c3ccc(C(=O)C(=O)N[C@H](CN4CCCC4)[C@H](O)c4ccc(OC5CC5)c(Cl)c4)cc3)ccc2nn1C(C)C [Example 310, N-((1R,2R)-1-(3-chloro-4-cyclopropoxyphenyl)-1-hydroxy-3-(pyrrolidin-1-yl)propan-2-yl)-2-(4-(2-isopropyl-3-methyl-2H-indazol-5-yl)phenyl)-2-oxoacetamide] |
| < 50 | CC(C)n1cc2ccc(C(=O)C(=O)N[C@H](CN3CCCC3)[C@H](O)c3cc(F)c4c(c3)OCCO4)cc2n1 [Example 312, N-((1R,2R)-1-(8-fluoro-2,3-dihydrobenzo[b][1,4]dioxin-6-yl)-1-hydroxy-3-(pyrrolidin-1-yl)propan-2-yl)-2-(2-isopropyl-2H-indazol-6-yl)-2-oxoacetamide] |
| < 50 | CC(C)n1cc2ccc(C(=O)C(=O)N[C@H](CN3CCCC3)[C@H](O)c3ccc(OC4CC4)c(Cl)c3)cc2n1 [Example 316, N-((1R,2R)-1-(3-chloro-4-cyclopropoxyphenyl)-1-hydroxy-3-(pyrrolidin-1-yl)propan-2-yl)-2-(2-isopropyl-2H-indazol-6-yl)-2-oxoacetamide] |
| < 50 | Cc1nn(C(C)C)c2ccc(C(=O)C(=O)N[C@H](CN3CCCC3)[C@H](O)c3ccc(OC4CC4)c(Cl)c3)cc12 [Example 317, N-((1R,2R)-1-(3-chloro-4-cyclopropoxyphenyl)-1-hydroxy-3-(pyrrolidin-1-yl)propan-2-yl)-2-(1-isopropyl-3-methyl-1H-indazol-5-yl)-2-oxoacetamide] |
| < 50 | O=C(N[C@H](CN1CCCC1)[C@H](O)c1ccc(SC2CC2)c(Cl)c1)C(=O)c1ccc(-c2ccc(F)cc2)cc1 [Example 320, N-((1R,2R)-1-(3-chloro-4-(cyclopropylthio)phenyl)-1-hydroxy-3-(pyrrolidin-1-yl)propan-2-yl)-2-(4′-fluoro-[1,1′-biphenyl]-4-yl)-2-oxoacetamide] |
